Inconclusive results and toxic doses are left out. Rule for the calls: active = survival T/C of 150% or more; inactive = T/C below 125% in these data.
System: P388 leukemia ip, CD2F1 mice, survival T/C
Experiment: NCI In Vivo Anticancer Drug Screen. Data for tumor model P388 Leukemia (intraperitoneal) in CD2F1 (CDF1) mice
Conditions: endpoint: median survival time, higher = longer survival
In short: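 Mice carrying the transplanted tumor received test compound or vehicle. Survival was recorded in each group, and the value is the treated-group measurement divided by that of the vehicle-treated control group.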

[1] = dose: 50.0 mg/kg/injection, schedule: Q01DX005 (ip), vehicle: saline with Tween-80
[2] = dose: 100.0 mg/kg/injection, schedule: Q01DX005 (ip), vehicle: saline with Tween-80
[3] = dose: 50.0 mg/kg/injection, schedule: Q01DX005 (ip), vehicle: Klucel (hydroxypropylcellulose) (HPC)
[4] = dose: 100.0 mg/kg/injection, schedule: Q01DX005 (ip), vehicle: Klucel (hydroxypropylcellulose) (HPC)
[5] = dose: 200.0 mg/kg/injection, schedule: Q01DX005 (ip), vehicle: Klucel (hydroxypropylcellulose) (HPC)
[6] = dose: 60.0 mg/kg/injection, schedule: Q01DX005 (ip), vehicle: saline
[7] = dose: 120.0 mg/kg/injection, schedule: Q01DX005 (ip), vehicle: saline
[8] = dose: 200.0 mg/kg/injection, schedule: Q01DX005 (ip), vehicle: saline with Tween-80

Measured: T/C

C/C=C/c1cc2n(c1)C(=O)c1cc(OC3OC(C)C(NC)C(C)(O)C3O)c(C)c(O)c1NC2O (stereo unspecified)
active: dose: 16.0 micrograms/kg/injection, schedule: Q01DX001 (ip), vehicle: DMSO 173 % of control | dose: 16.0 micrograms/kg/injection, schedule: Q03DX003 (ip), vehicle: DMSO 180 % of control
inactive: dose: 0.02 mg/kg/injection, schedule: Q04DX003 (ip), vehicle: saline 94 % of control | dose: 0.04 mg/kg/injection, schedule: Q04DX003 (ip), vehicle: saline 89 % of control | dose: 0.3 micrograms/kg/injection, schedule: Q03DX003 (ip), vehicle: DMSO 110 % of control | dose: 1.0 micrograms/kg/injection, schedule: Q01DX001 (ip), vehicle: DMSO 120 % of control | dose: 1.0 micrograms/kg/injection, schedule: Q01DX009 (ip), vehicle: saline 100 % of control | dose: 4.0 micrograms/kg/injection, schedule: Q01DX009 (ip), vehicle: saline 117 % of control | dose: 4.0 micrograms/kg/injection, schedule: Q04DX003 (ip), vehicle: DMSO 120 % of control | dose: 16.0 micrograms/kg/injection, schedule: Q04DX003 (ip), vehicle: DMSO 123 % of control | dose: 32.0 micrograms/kg/injection, schedule: Q01DX001 (ip), vehicle: DMSO 95 % of control

COc1ccc2c(Cl)ccnc2c1OC
inactive: [1] 99 % of control | [2] 107 % of control

NC(N)=NC(N)=NCCS(=O)(=O)O
inactive: dose: 50.0 mg/kg/injection, schedule: Q01DX005 (ip), vehicle: saline 110 % of control | dose: 100.0 mg/kg/injection, schedule: Q01DX005 (ip), vehicle: saline 110 % of control | dose: 200.0 mg/kg/injection, schedule: Q01DX005 (ip), vehicle: saline 117 % of control

COc1ccc2cc1Oc1ccc(cc1)C[C@H]1c3cc(c(OC)cc3CCN1C)Oc1c(O)c(OC)cc3c1[C@H](C2)N(C)CC3
inactive: dose: 25.0 mg/kg/injection, schedule: Q01DX009 (ip), vehicle: saline 106 % of control | dose: 50.0 mg/kg/injection, schedule: Q01DX009 (ip), vehicle: saline 100 % of control | dose: 50.0 mg/kg/injection, schedule: Q01DX009 (ip), vehicle: suspension in saline 103 % of control | dose: 100.0 mg/kg/injection, schedule: Q01DX009 (ip), vehicle: saline 103 % of control | dose: 100.0 mg/kg/injection, schedule: Q01DX009 (ip), vehicle: suspension in saline 102 % of control

C=CC(=O)N(C)c1nc(N(C)C)nc(N(C)C)n1
inactive: [3] 102 % of control | [4] 108 % of control

CCOC(=O)C(/C=N\c1[nH]ncc1C#N)=C(/C(=O)OCC)c1ccc(O)cc1
inactive: [3] 110 % of control | [4] 105 % of control | [5] 105 % of control

COC(=O)c1cc(-c2ccccc2)[nH]c(=O)c1C#N
inactive: [6] 100 % of control | [7] 100 % of control

COc1cc(N=Nc2c(Cl)cc([N+](=O)[O-])cc2Cl)c(OC)cc1N=Nc1ccc(N)nc1N
inactive: [1] 99 % of control | [2] 100 % of control | [8] 101 % of control

Cc1ccc(/C=C/C(=N/NC(=O)c2ccccc2)C(C)CN(C)C)cc1 (stereo unspecified)
inactive: [6] 99 % of control | [7] 111 % of control

CC1=C(C#N)C(=O)NC(C)C1 (stereo unspecified)
inactive: dose: 25.0 mg/kg/injection, schedule: Q01DX005 (ip), vehicle: Klucel (hydroxypropylcellulose) (HPC) 108 % of control | [3] 101 % of control | [4] 108 % of control | [2] 98 % of control | [5] 104 % of control | [8] 99 % of control | dose: 400.0 mg/kg/injection, schedule: Q01DX005 (ip), vehicle: saline with Tween-80 102 % of control | dose: 500.0 mg/kg/injection, schedule: Q01DX001 (ip), vehicle: saline with Tween-80 100 % of control | dose: 1000.0 mg/kg/injection, schedule: Q01DX001 (ip), vehicle: saline with Tween-80 99 % of control | dose: 2000.0 mg/kg/injection, schedule: Q01DX001 (ip), vehicle: saline with Tween-80 108 % of control

c1ccc(-c2nnn(-n3nnc(-c4ccccc4)n3)n2)cc1
inactive: dose: 100.0 mg/kg/injection, schedule: Q04DX003 (ip), vehicle: saline with Tween-80 97 % of control | dose: 200.0 mg/kg/injection, schedule: Q04DX003 (ip), vehicle: saline with Tween-80 100 % of control | dose: 400.0 mg/kg/injection, schedule: Q04DX003 (ip), vehicle: saline with Tween-80 97 % of control

— PubChem BioAssay AID330 (DTP/NCI, 2004)
